Measured values published in patent US20240010654A1, “CRYSTALLINE FORMS OF A TYK2 INHIBITOR” (Ventyx Biosciences, Inc., priority 2022, published 2024).
Where “and” joins values, the source holds several entries; their conditions need not be identical. Equal values may be shown once. Where a name gives a salt, the structure may show the parent alone. Read-outs that look alike come from different tables or passages of the source.

Tests used:
[1] = Dynamic Vapor Sorption (DVS); type: physicochemical; details: for Post-DVS analysis by XRPD: after DVS cycle at 25° C.; for hygroscopicity of the material (DVS): 25° C.
Method: DVS data was collected on a Vsorp Dynamic Moisture Sorption Analyzer (ProUmid GmbH & Co. KG, Germany). The sample was placed into a tared sample chamber and automatically weighed. • Sample temperature: 25° C. • Cycle: Full cycle • Adsorption: 0, 10, 20, 30, 40, 50, 60, 70, 80, 90 • Desorption: 80, 70, 60, 50, 40, 30, 20, 10, 0 • Characterize the sample after the DVS experiment by XRPD
Alternatively, DVS analysis was carried out using a Surface Measurement System DVS Intrinsic analyzer. The instrument was calibrated with standard weights. Approximately 15-20 mg of sample was loaded into a pan for analysis. The sample was analyzed at 25° C. in 10% relative humidity (RH) steps from 50% to 95% RH (adsorption cycle), from 95% to 0% RH (desorption cycle), and from 0% to 50% RH (adsorption cycle). The movement from one step to the next occurred either after satisfying the equilibrium criterion of 0.002% weight change (dm/dt) or, if the equilibrium criterion was not met, after ten hours. Samples after the DVS test were tested by XRPD.

[2] = Pharmacokinetics following oral administration in male cynomolgus monkeys; type: in vivo; details: for AUC/Dose: in ng·h/mL per mg/kg; for Cmax: read-out: C0/Cmax
Method: The gavage tube was flushed with 5 mL of vehicle after administration of the dose. Plasma samples were collected at the following time points: 15 min, 30 min, 1 hr, 2 hr, 4 hr, 6 hr, 8 hr and 24 hr postdose. The concentrations of Compound 1 were determined in plasma.

JAK1/TYK2 = assay: Co-stimulation assay in lysed whole blood: IFNa (JAK1/TYK2) stimulated STAT1 phosphorylation; type: cell-based; details: lysed human whole blood, IFNa 100 ng/mL, pSTAT1 by flow cytometry; read-out: IFN-a/Jak1Tyk2 IC50
Method: Example 16: Co-Stimulation Assay in Lysed Whole Blood; JAK2: GM-CSF Stimulated STAT5 Phosphorylation and JAK1/TYK2 Stimulated STAT1 Phosphorylation Assay
Dilute RBC lysis buffer to 1× in distilled water. Add 2 mL blood to 38 mL of 1×RBC-lysis buffer. Incubate for 15 mins at RT, in dark. Spin at 300 g, 5 mins, to collect the pellet. Re-lyse if necessary. Re-suspend pellet in 5 mL of cRPMI.
Aliquot 80 μL of lysed human blood in to wells of 96 deep-well plate. Add 10 μL of (10× conc.) of different concentrations of Compound 1 to all wells except controls (unstained and unstimulated) and mix it with the help of 100 uL multichannel. Add 10 uL of RPMI media in controls. For dilution of Compound 1 and dilution range please refer Appendix. Incubate on water bath or CO2 incubator for 1 hour at 37° C. Add 10 μL of (10× conc.) of cytokine mix (GM-CSF and IFNa) (final conc. 10 ng/mL of GM-CSF and 100 ng/mL of IFNa) to each well except unstimulated and unstained controls and incubate further for 20 minutes on water bath at 37° C.
Add 900 μL of prewarmed 1× Fix/Lyse solution (Appendix) and mix it properly using 1000 μl multichannel, incubate further on water bath at 37° C. for 10 minutes (which includes time of addition). Centrifuge at 800×g for 5 minutes at 40° C.; remove 900 uL of supernatant and add 900 μL of 1×PBS. Centrifuge at 800×g for 5 minutes at 40° C., remove 900 μL of supernatant. […]

[3] = Stability test of Compound 1 adipate, Form 1 (HPLC purity and XRPD after storage); type: physicochemical; details: for XRPD (crystal form at day 7): after 7 days storage
Method: Samples were prepared in duplicate for each condition. At day 7, the samples were analyzed by HPLC and XRPD to check the purity and the crystal form, respectively.

[4] = Competitive slurry experiments of Compound 1 adipate, Forms 1, 2 and 3; type: physicochemical; details: from the competitive slurry experiments
Method: The resulting solid was collected by filtration and analyzed by XRPD.
A mixed sample of Compound 1 adipate, […] and Compound 1 adipate, Form 2 was suspended in solvents (40 mg, 0.5 mL) and stirred at 50° C. for 1 h. The resulting solid was collected by filtration and analyzed by XRPD.

[5] = male, cynomolgus monkey, plasma, po, 50 mg/kg, PO BID, 50 mg/kg BID

CNc1cc(Nc2cc(F)cc3c2OCCO3)nc2c(NC(=O)N[C@@H]3C[C@@H]3F)cnn12 [Compound 1, Form B, 1-(5-((7-fluoro-2,3-dihydrobenzo[b][1,4]dioxin-5-yl)amino)-7-(methylamino)pyrazolo[1,5-a]pyrimidin-3-yl)-3-((1R,2S)-2-fluorocyclopropyl)urea]
water uptake (DVS) ([1]; 95% RH and 25° C.): 0.68% | Post-DVS analysis by XRPD [1]: no change

CNc1cc(Nc2cc(F)cc3c2OCCO3)nc2c(NC(=O)N[C@@H]3C[C@@H]3F)cnn12 [Compound 1 oxalate, Form 1, 1-(5-((7-fluoro-2,3-dihydrobenzo[b][1,4]dioxin-5-yl)amino)-7-(methylamino)pyrazolo[1,5-a]pyrimidin-3-yl)-3-((1R,2S)-2-fluorocyclopropyl)urea]
hygroscopicity of the material (DVS) [1]: slightly hygroscopic | water uptake (DVS) ([1]; 80% RH and 25° C.): 0.37% | Post-DVS analysis by XRPD [1]: no change | C0/Cmax ([2]; PO, 5 mg/kg, Form 1, 5 mg/kg): 103 ng/mL | AUC/Dose ([2]; PO, 5 mg/kg, Form 1, 5 mg/kg): 302 | AUC(0-t) ([2]; male, cynomolgus monkey, plasma, po, 5 mg/kg): 1510 ng·h/mL | bioavailability ([2]; male, cynomolgus monkey, plasma, po, 5 mg/kg, PO, 5 mg/kg, read-out: % F (oral bioavailability)): 21.6% | Tmax ([2]; male, cynomolgus monkey, plasma, po, 5 mg/kg, PO, 5 mg/kg, read-out: Tmax): 4.67 h

CNc1cc(Nc2cc(F)cc3c2OCCO3)nc2c(NC(=O)N[C@@H]3C[C@@H]3F)cnn12 [Compound 1 mesylate, Form 1, 1-(5-((7-fluoro-2,3-dihydrobenzo[b][1,4]dioxin-5-yl)amino)-7-(methylamino)pyrazolo[1,5-a]pyrimidin-3-yl)-3-((1R,2S)-2-fluorocyclopropyl)urea]
water uptake (DVS) ([1]; 95% RH and 25° C.): 2.65% | Post-DVS analysis by XRPD [1]: no change

CNc1cc(Nc2cc(F)cc3c2OCCO3)nc2c(NC(=O)N[C@@H]3C[C@@H]3F)cnn12 [Compound 1 phosphate, Form 1, 1-(5-((7-fluoro-2,3-dihydrobenzo[b][1,4]dioxin-5-yl)amino)-7-(methylamino)pyrazolo[1,5-a]pyrimidin-3-yl)-3-((1R,2S)-2-fluorocyclopropyl)urea]
hygroscopicity of the material (DVS) [1]: slightly hygroscopic | water uptake (DVS) ([1]; 80% RH and 25° C.): 1.20% | Post-DVS analysis by XRPD [1]: no change

CNc1cc(Nc2cc(F)cc3c2OCCO3)nc2c(NC(=O)N[C@@H]3C[C@@H]3F)cnn12 [Compound 1, 1-(5-((7-fluoro-2,3-dihydrobenzo[b][1,4]dioxin-5-yl)amino)-7-(methylamino)pyrazolo[1,5-a]pyrimidin-3-yl)-3-((1R,2S)-2-fluorocyclopropyl)urea]
IC50 (JAK1/TYK2): < 1000 nM

CNc1cc(Nc2cc(F)cc3c2OCCO3)nc2c(NC(=O)N[C@@H]3C[C@@H]3F)cnn12 [Compound 1 adipate, Form 1, 1-(5-((7-fluoro-2,3-dihydrobenzo[b][1,4]dioxin-5-yl)amino)-7-(methylamino)pyrazolo[1,5-a]pyrimidin-3-yl)-3-((1R,2S)-2-fluorocyclopropyl)urea adipate]
HPLC purity ([3]; 40° C./75% RH (open) @ 7 d, duplicate, batch from DMSO/EtOAc/EtOH): 99.75 and 99.86 | HPLC purity ([3]; 40° C./75% RH (open) @ 7 d, duplicate, batch from DMSO/EtOH/Water): 99.64 and 99.65 | HPLC purity ([3]; 40° C./75% RH (open) @ 7 d, duplicate, batch from acetone/water (19/1)): 99.43 and 99.44 | physical and chemical stability ([3]; 60° C. (capped) and 40° C./75% RH (open) for 1 week): both physically and chemically stable | HPLC purity ([3]; 60° C./capped @ 7 d, duplicate, batch from DMSO/EtOAc/EtOH): 99.85 and 99.82 | HPLC purity ([3]; 60° C./capped @ 7 d, duplicate, batch from DMSO/EtOH/Water): 99.65/99.65 | HPLC purity ([3]; 60° C./capped @ 7 d, duplicate, batch from acetone/water (19/1)): 99.44/99.44 | HPLC purity ([3]; Day 0, batch from DMSO/EtOAc/EtOH (Example 13Ac)): 99.86 | HPLC purity ([3]; Day 0, batch from DMSO/EtOH/Water (Example 13Ad)): 99.66 | HPLC purity ([3]; Day 0, batch from acetone/water (19/1) (Example 13Ab)): 99.49 | XRPD (crystal form at day 7) ([3]; batch from DMSO/EtOAc/EtOH): Adipate, Form 1 | XRPD (crystal form at day 7) ([3]; batch from DMSO/EtOH/Water): Adipate, Form 1 | XRPD (crystal form at day 7) ([3]; batch from acetone/water (19/1)): Adipate, Form 1 | hygroscopicity of the material (DVS) [1]: non-hygroscopic | water uptake (DVS) ([1]; 80% RH and 25° C.): less than 0.2% | Post-DVS analysis by XRPD [1]: no change | % F (oral bioavailability) ([2]; PO, 5 mg/kg, Form 1, 5 mg/kg): 33.6% | AUClast ([2]; PO, 5 mg/kg, Form 1, 5 mg/kg): 2347 ng·h/mL | C0/Cmax ([2]; PO, 5 mg/kg, Form 1, 5 mg/kg): 672 ng/mL | Tmax ([2]; PO, 5 mg/kg, Form 1, 5 mg/kg): 2.67 h | AUC/Dose ([2]; PO, 5 mg/kg, Form 1, 5 mg/kg): 469 | AUC/Dose ([2]; PO, 100 mg/kg): 1083 | half-life ([2]; cynomolgus monkey, plasma, PO, 5 mg/kg): 2.66 h | AUC(0-t) ([2]; male, cynomolgus monkey, plasma, po, 100 mg/kg): 108000 ng·h/mL | Cmax ([2]; male, cynomolgus monkey, plasma, po, 100 mg/kg, PO, 100 mg/kg): 9770 ng/mL | Tmax ([2]; male, cynomolgus monkey, plasma, po, 100 mg/kg, PO, 100 mg/kg, read-out: Tmax): 4.67 h | PK compared to Compound 1 free base, Form A ([2]; oral gavage, Table 9): faster Tmax and higher AUC | PK compared to Compound 1 oxalate, Form 1 ([2]; oral gavage, Table 10): faster Tmax, higher AUC, and higher oral bioavailability (% F) | relative stability among the three Compound 1 adipate forms [4]: most stable form

CNc1cc(Nc2cc(F)cc3c2OCCO3)nc2c(NC(=O)N[C@@H]3C[C@@H]3F)cnn12 [Compound 1, Form A, 1-(5-((7-fluoro-2,3-dihydrobenzo[b][1,4]dioxin-5-yl)amino)-7-(methylamino)pyrazolo[1,5-a]pyrimidin-3-yl)-3-((1R,2S)-2-fluorocyclopropyl)urea]
water uptake (DVS) ([1]; 95% RH and 25° C.): 5.08% | Post-DVS analysis by XRPD [1]: no change | AUC/Dose ([2]; PO BID, 50 mg/kg BID): 761 | AUC(0-t) [2, 5]: 76100 ng·h/mL | Tmax ([2]; male, cynomolgus monkey, plasma, po, 50 mg/kg, PO BID, 50 mg/kg BID, after second dose, read-out: Tmax): 7 h | Cmax [2, 5]: 5630 ng/mL
